Measurements from patent US10300107B2, “Compositions and methods for CaMKII inhibitors and uses thereof” (THE REGENTS OF THE UNIVERSITY OF COLORADO, priority 2007, dated 2019).
Values joined by “and” are separate entries in the source; they are usually repeats but may differ in a detail not shown here. Equal values may be shown once. “Also recorded” adds a separate entry of the source. Read-outs that look alike come from different tables or passages of the source. Where no end group is shown, it is not given here.

Experiments:
CaMKII [1] = type: biochemical; conditions: for IC50: read-out: IC50 of CaMKII inhibition; for effect of further mutation on potency of CaMKII inhibition: CN19a2v background; for potency of CaMKII inhibition of CN19 combination mutants: comparator as stated in the value
Procedure: CaMKII activity assays. Standard CaMKII assays were done for 1 min at 30° C. previously described, with 20 nM CaMKII (subunit, not holoenzyme concentration), 50 mM PIPES pH 7.2, 0.1 mg/ml BSA, 10 mM MgCl2, 100 μM [γ-^32P] ATP (˜1 Ci/mmol), 1 mM CaCl2, 1-2 μM CaM, and 30-60 μM AC2 peptide (or syntide2). The reactions were spotted onto Whatman P81 phosphocellulose paper rectangles (˜2×2.5 cm). To remove free radioactivity, the paper rectangles were rinsed and washed for 30 min under agitation in 0.5% phosphoric acid or water. […] Radioactivity of the bound peptides was quantified in a Beckman 6000TA scintillation counter by the Cherenkov method. Any changes of the standard protocol were done as indicated. For assays of the GFP-CaMKIIα mutants, kinase amounts were normalized by GFP fluorescence in the extract, and total protein was adjusted with Cos-7 extracts.

CaMKII [2] = molecular target: T1, CaMKII (Homo sapiens, UniProt Q9UQM7); test: Autonomous CaMKII activity (pre-autophosphorylated CaMKII); type: biochemical
T1 construct: made in house; host or cells: baculovirus/Sf9 cells
Procedure: (§1) Stimulated CaMKII activity was assessed using purified CaMKII, [γ^32P]ATP, and the CaMKII substrate, syntide2. Reaction was initiated by addition of calcium and calmodulin. To measure autonomous activity, CaMKII was pre-autophosphorylated by incubation with calcium and calmodulin, which was then chelated by addition of EDTA prior to adding the kinase to syntide2 and [γ^32P]ATP. […] To measure self-association, purified CaMKII was incubated for five minutes with 1mM ADP, calcium and calmodulin, and the appropriate inhibitor. The reaction mixture was then centrifuged to pellet the self-associated kinase. The supernatant (S) was removed and saved and the pellet (P) was resuspended. Both were then resolved by SDS-PAGE and western-blotted for CaMKII. Self-associated kinase is found in the pellet.

Langerhans' islets = test: Glucose-induced insulin secretion from isolated Langerhans' islets; type: cell-based, rat; conditions: 11 mM glucose; EGTA 0.5 mM, KN93 10 μM, antCN27 5 μM, tatCN21 5 μM
Procedure: Insulin secretion. Langerhans' islets acutely isolated from adult male Wistar rats (Harlan) were obtained. […] Inhibitors or EGTA were added 30 min before stimulation. Insulin secreted into the medium during 90 min stimulation was measured using an ELISA kit (CrystalChem).

[3] = molecular target: T2, CaMKII binding to GST-NR2B-c (Homo sapiens, UniProt Q9UQM7); test: Ca2+/CaM-induced CaMKII binding to immobilized GST-NR2B-c; conditions: Western blot of eluted CaMKII
T2 construct: made in house; host or cells: CaMKII: baculovirus/Sf9; GST-NR2B-c and CaM: bacteria
Procedure: CaMKII binding to NR2B-c was assessed as previously described. Briefly, GST-NR2B-c was immobilized on anti-GST coated microtiter plates, then overlaid with 100 nM CaMKII in presence of Ca^2+/CaM and 1 or 5 μM of various CN peptides. After extensive wash, protein was eluted from the plates by boiling in SDS-loading buffer. Eluted CaMKII was detected by Western-blot as described above.

CaMKII [4] = molecular target: T1, CaMKII; test: CaMKII self-association in vitro; type: biochemical
Procedure: as §1

CaMKII [5] = molecular target: T1, CaMKII; test: CaMKII auto- and protein-phosphorylation (MAP2, T286, T305; immuno-blot); type: biochemical; conditions: KN93 10 μM
Procedure: CaMKII auto- and protein-phosphorylation. 10 nM MAP2 (˜140 nM phosphorylation sites) was used instead of substrate peptide, and reaction times were 5 min, unless indicated otherwise. CaMKII concentration was 100 nM subunits (=8.3 nM holoenzymes). Auto- and MAP2-phosphorylation were assessed by Immuno-blot analysis previously derived (Bayer et al., 2002, incorporated herein by reference) with phospho-T286- or -T305-specific antibodies (1:500; PhosphoSolutions) and an anti-phospho-Thr antibody (1:500; Zymed), respectively. Total CaMKIIα was detected with CBα2 antibody (1:2000; GIBCO). Protein were separated on 10% poly-acrylamid SDS Gels, and electro-blotted onto “Protran” 0.2 μm pore nitrocelluse filters (e.g. Schleicher & Schull) or onto PVDF filters (e.g. Perkin Elmer). Alternatively, for quantitative analyses, a vacuum-driven slot-blot manifold (e.g. Schleicher & Schull) was used for transfer onto PVDF membranes. PVDF membranes were air-dried for 15 min, then wetted in Methanol. Blots were blocked in 5% milk in TBS-T (Tris-buffered saline pH 7.6 with 0.1% Tween-20). Antibodies were incubated for 45-60 min at room temperature in 2.5% milk in TBS-T; for the anti-phospho-T305 antibody, 2.5% BSA was used instead. After secondary antibody incubation (anti-mouse or anti-rabbit horseradish peroxidase conjugate; Amersham; 1:4000), detection was done using the “Western Lightning” system (Perkin Elmer) and exposure to “Hyperfilm” (Amersham). For quantitative analysis, chemoluminescence was captured using a ChemiImager 4400 imaging system (Alpha Innotek) instead of film. Only non-saturated images were analyzed, using AlphaEase software.

[6] = test system: hippocampal and cortical cultures; test: Glutamate induced neuronal cell death measured by LDH release; type: cell-based, rat
Procedure: In another example, neuronal cell death is measured by LDH release. In this exemplary method, glutamate was used to induce neuronal cell death, A portion of CaMKIIN was fused to a cell penetrating molecule to generate tatCN21a construct.

CaMKI = CaMKI (Homo sapiens, UniProt Q14012); test: CaMKI activity / inhibition; type: biochemical
Chain of CaMKI (Q14012 whole entry, species assumed): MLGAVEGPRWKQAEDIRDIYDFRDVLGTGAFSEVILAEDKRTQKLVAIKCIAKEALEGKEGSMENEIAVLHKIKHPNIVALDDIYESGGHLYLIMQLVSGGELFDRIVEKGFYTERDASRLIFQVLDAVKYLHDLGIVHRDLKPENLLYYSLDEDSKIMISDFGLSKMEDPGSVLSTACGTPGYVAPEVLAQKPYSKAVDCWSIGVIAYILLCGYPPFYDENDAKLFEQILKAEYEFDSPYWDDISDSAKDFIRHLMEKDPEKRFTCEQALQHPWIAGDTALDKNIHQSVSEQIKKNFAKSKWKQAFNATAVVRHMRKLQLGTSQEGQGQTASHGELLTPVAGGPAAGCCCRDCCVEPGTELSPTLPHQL
From the text: For curve fit, the Hill coefficient was set as 1.

calmodulin (CaM) = calmodulin (CaM) (Homo sapiens, UniProt P0DP23); test: Binding to calmodulin (slot blot, blot overlay, TA-CaM competition with CBD); conditions: for binding of biotinylated CaM to immobilized peptide: slot blot
Procedure: TA-labeled CaM represents reduced fluorescence after binding to CaMKII or its CaM binding domain (CBD; −0.05 nM kD for CaM^5; see also FIG. 9G).
Measured was AC2 phosphorylation as described^4. Error bars show s.e.m.

protein kinase C (PKC) = test: Phosphorylation of CN19 peptides by PKC in vitro; type: biochemical
From the text: CN19 phosphorylation at S12 by protein kinase C reduces potency of CaMKII inhibition. In another exemplary method, protein kinase C (PKC) activity was examined with respect to CN19 as a substrate or the S12 mutant. […] The CN19 region most sensitive to Ala substitutions (surrounding R11) contains a potential PKC phosphorylation site (S12).
FIGS. 22A and 22B represent CN19 phosphorylation at S12 by PKC reduces potency of CaMKII inhibition. A, PKC phosphorylated CN19 but not its S12A mutant in vitro, as measured by phosphate incorporation. The phosphorylation rate of CN19 was >50% compared to a MARCKS peptide substrate of PKC. […] S12 was sensitive also to various other mutations (see Table 1 and data not shown). Error bars indicate s.e.m. in all panels.

**Q.** For KRPPKLGQIGRSKRVVIEDD [CN20], which IC50 (CaMKII [1]; phosphorylation of syntide 2) is on record?
**A.** ~100 nM

**Q.** How did the “inhibitory potency on CaMKII activity” value (CaMKII [1]; CN truncation peptides, substrate peptides AC2 or syntide 2) turn out when “CN17a: C-terminal truncation of CN21a by 4 amino acids (KRPPKLGQIGRSKRVVI)” was run?
**A.** still clearly affected CaMKII activity

**Q.** For `COc1ccc(S(=O)(=O)N(CCO)c2ccccc2CN(C)C/C=C/c2ccc(Cl)cc2)cc1` [KN93, reference compound], which “autonomous CaMKII activity” value (CaMKII [2]) is on record?
**A.** only tatCN21 inhibits autonomy

**Q.** What about the glucose-induced insulin secretion (Langerhans' islets) of the same compound?
**A.** inhibited

**Q.** And the “calcium and calmodulin stimulated CaMKII activity” value (CaMKII [1]; substrate syntide2)?
**A.** inhibit calcium and calmodulin stimulated CaMKII activity

**Q.** What about the “CaMKII binding to immobilized GST-NR2B-c / NR2B” value [3] of the same compound?
**A.** inhibited binding

**Q.** What about the “CaMKII self-association in vitro” value (CaMKII [4]) of the same compound?
**A.** inhibited

**Q.** What about the “CaMKII T305 auto-phosphorylation” value (CaMKII [5]; CN21 5 μM) of the same compound?
**A.** blocked T305

**Q.** And the “CaMKII T286 auto-phosphorylation” value (CaMKII [5]; CN peptides 1-5 μM)?
**A.** essentially completely blocked

**Q.** And the “glutamate induced neuronal cell death” value ([6]; added 1 h after the insult)?
**A.** not when added after the insult; also recorded: only when applied during but not after glutamate insult

**Q.** And the “glutamate induced neuronal cell death” value ([6]; present during the insult)?
**A.** protective only when present during the insult; also recorded: reduce by half

**Q.** Which “effect on CaMKI activity” value (CaMKI) does the source give for “CN27: CaM-KIINtide, previously identified inhibitory region of CaM-KIIN, SEQ ID NO:17 (KRPPKLGQIGRSKRVVIEDDRIDDVLK; Derived from CaMKIIN) [reference compound]” here?
**A.** no significant effect

**Q.** And the “inhibition of CaMKII isoforms α and β” value (CaMKII [1])?
**A.** inhibit both major brain CaMKII isoforms, α and β

**Q.** Which “effect of further mutation on potency of CaMKII inhibition” value (CaMKII [1]) does the source give for KRAPKLGQIGRQKAVVIED [CN19a2v V12Q] here?
**A.** significantly increase potency; also recorded: dramatically increase CaMKII inhibition

**Q.** And the IC50 (CaMKII [1]; phosphorylation of syntide 2)?
**A.** ~1 nM

**Q.** `N[C@@H](CCCP(=O)(O)O)C(=O)O` [APV] was tested. Which “glutamate induced cell death” value ([6]; 7DIV cortical, added 1-6 hours post insult) did it give?
**A.** did not

**Q.** What about the “glutamate induced neuronal cell death” value ([6]; present during the insult) of the same compound?
**A.** only reduces cell death when present during the insult

**Q.** How did the “effect on CaMKI activity” value (CaMKI) turn out when “tat: cell penetrating sequence YGRKKRRQRRR, SEQ ID NO:15 [reference compound]” was run?
**A.** statistically significant but much milder effects

**Q.** And the “binding of biotinylated CaM to immobilized peptide” value (calmodulin (CaM))?
**A.** did not bind

**Q.** Which results are given for KRAPKLGQIGRVKAVVIED [CN19a2v]?
**A.** IC50 (CaMKI): ~18000 nM; increase of potency of CaMKII inhibition compared to CN19 (CaMKII [1]): about 5 fold; potency of CaMKII inhibition of CN19 combination mutants (CaMKII [1]): without loss of inhibition potency; also recorded: significantly stronger compared to CN19a3 with additional S12V mutation; also recorded: did not reduce potency; IC50 (CaMKII [1]; phosphorylation of syntide 2): ~20 nM and 20 nM

**Q.** How did the “increase of potency of CaMKII inhibition compared to CN19” value (CaMKII [1]) turn out when KRPPKLGQIGRSKAVVIED [R14A] was run?
**A.** over 10 fold

**Q.** And the “effect of single CN19 mutation on potency of CaMKII inhibition” value (CaMKII [1]; compared to CN19 wild type)?
**A.** significantly increased potency; also recorded: very potent

**Q.** What about the “IC50 of CaMKII inhibition” value (CaMKII [1]; phosphorylation of syntide 2) of the same compound?
**A.** single digit

**Q.** For `O=C(O)CN(CCOCCOCCN(CC(=O)O)CC(=O)O)CC(=O)O` [EGTA], which glucose-induced insulin secretion (Langerhans' islets) is on record?
**A.** inhibited

**Q.** How did the “potency of CaMKII inhibition of CN19 combination mutants” value (CaMKII [1]) turn out when “CN19a2: CN19 double mutant P3A, R14A, SEQ ID NO: 25 (KRAPKLGQIGRSKAVVIED; Derived from CamKIIN with amino acid substitutions)” was run?
**A.** largest increase in CaMKII inhibition potency; also recorded: most potent double mutant of CN19

**Q.** What about the “potency of CaMKII inhibition of CN19 combination mutants” value (CaMKII [1]; listed as a2) of the same compound?
**A.** higher potency than the a3 mutant; also recorded: significant inhibition even at 10 nM

**Q.** How did the Kd (calmodulin (CaM)) turn out when RQIKIWFQNRRMKWK [ant] was run?
**A.** ~5 nM

**Q.** What about the “competition with CBD for binding of TA-labeled CaM” value (calmodulin (CaM)) of the same compound?
**A.** compete

**Q.** And the “interference with Ca2+-dependent CaM binding to brain proteins” value (calmodulin (CaM); blot overlay assay, 5 μM peptide)?
**A.** also interfered with such CaM binding, but somewhat less efficiently than antCN27; also recorded: affect Ca^2+-dependent CaM binding

**Q.** What about the “binding of biotinylated CaM to immobilized peptide” value (calmodulin (CaM)) of the same compound?
**A.** Direct binding

**Q.** What does the source list for KRPPKLGQIGRSKRVVIED [CN19]?
**A.** IC50 (CaMKI): ~36000 nM; effect on CaMKI activity (CaMKI): no significant effect; phosphorylated by PKC (protein kinase C (PKC)): phosphorylated by PKC; phosphorylation rate by PKC compared to MARCKS peptide substrate (protein kinase C (PKC)): > 50%

**Q.** What does the source list for KRAPKLGQIGRVKAVDIED [CN19a2v V16D]?
**A.** effect of further mutation on potency of CaMKII inhibition (CaMKII [1]): significantly increase potency; also recorded: dramatically increase CaMKII inhibition; IC50 (CaMKII [1]; phosphorylation of syntide 2): ~1 nM

**Q.** How did the “potency of CaMKII inhibition of CN19 combination mutants” value (CaMKII [1]) turn out when “CN19a3: CN19 triple mutant P3A, K13A, R14A (KRAPKLGQIGRSAAVVIED)” was run?
**A.** significantly increased over CN19 wild type; also recorded: significantly increased potency compared to single mutant with the highest potency, R14A

**Q.** What about the “potency of CaMKII inhibition of CN19 combination mutants” value (CaMKII [1]; listed as a3) of the same compound?
**A.** significantly increased potency of CaMKII inhibition over CN19 wild type; also recorded: slightly better inhibition than the aX mutant

**Q.** Which “Effects of individual CN19 mutations on CaMKII inhibition: column +” value (CaMKII [1]; value = substituting residue listed under +) does the source give for “V16D: CN19 position 16 substituted with D (rational mutagenesis) (KRAPKLGQIGRVKAVDIED)” here?
**A.** D*

**Q.** Which “CaMKII binding to immobilized GST-NR2B-c / NR2B” value [3] does the source give for `CC1CNCCN1S(=O)(=O)c1cccc2cnccc12` (stereo not shown) [H7, reference compound] here?
**A.** did not
